A compilation of properties of binary mixtures (doi:10.1016/j.molliq.2011.08.008)

Test: xn = mol fraction of the nth substance listed
Conditions: 100 kPa

CCOCCOCCOCCO + CCCC[n+]1ccn(C)c1.F[P-](F)(F)(F)(F)F
speed of sound [m/s]
Conditions | x2 = 0.0558 | x2 = 0.1123 | x2 = 0.2121 | x2 = 0.3079 | x2 = 0.4014 | x2 = 0.5002 | x2 = 0.6006 | x2 = 0.7035 | x2 = 0.8015 | x2 = 0.9075
288.15 K | – | 1474.2 | – | 1486.2 | 1487.1 | 1485 | 1481.8 | 1478.4 | 1469.4 | 1467.9
293.15 K | 1448.3 | 1457 | 1466.8 | 1470.5 | 1472.2 | 1470.8 | 1468.1 | – | – | –
298.15 K | 1430.9 | 1440 | 1450.5 | 1455 | 1457.3 | – | 1454.5 | 1452.5 | 1444.6 | –
303.15 K | 1414.1 | 1423.2 | 1434.3 | 1439.6 | 1442.5 | 1442.7 | 1441.2 | 1439.1 | – | 1431.2
308.15 K | 1397.3 | 1406.5 | 1418.1 | 1424.2 | 1427.7 | – | 1427.8 | 1426.1 | 1420.7 | 1419.5
313.15 K | – | – | 1402.2 | 1409 | 1413.1 | 1415 | 1414.5 | 1413.5 | – | 1408
318.15 K | 1363.8 | 1373.6 | 1386.2 | 1393.8 | 1398.8 | 1401.1 | 1401.5 | 1400.7 | 1397.8 | 1396.6
